Values quoted from earlier work, collected in patent US20090246262A1, “EASILY APPLIED FIELD DRESSING FOR WOUNDS” (Valor Medical, Inc., priority 2008, published 2009).

What was measured:
[1] = in vivo
[2] = upon contact with moist tissues

Structure (SMILES): C=C(C#N)C(=O)OCC [ethyl]
- histotoxicity [1]: histotoxic

Structure (SMILES): C=C(C#N)C(=O)OC [Eastman 910]
- histotoxicity [1]: histotoxic

Structure (SMILES): C=C(C#N)C(=O)OC [methyl homolog, methyl cyanoacrylate]
- time to polymerize (remains as a monomer) [2]: 30 to 55 s
- histotoxicity [1]: histoxicity severely limited its clinical usefulness
